# From publication PMC11277489, “Novel Piperazine Derivatives of Vindoline as Anticancer Agents” (International Journal of Molecular Sciences, 2024)
# Read-outs that look alike come from different tables or passages of the source.
# What was measured:
# HOP-62 = experiment: NCI60 one-dose screen (10 μM), Non-small Cell Lung Cancer; assay type: cell-based; settings: Homo sapiens
# RPMI-8226 = experiment: NCI60 one-dose screen (10 μM), Leukemia; assay type: cell-based; settings: Homo sapiens
# BT-549 = experiment: NCI60 one-dose screen (10 μM), Breast Cancer; assay type: cell-based; settings: Homo sapiens
# A498 = experiment: NCI60 one-dose screen (10 μM), Renal Cancer; assay type: cell-based; settings: Homo sapiens
# UACC-62 = experiment: NCI60 one-dose screen (10 μM), Melanoma; assay type: cell-based; settings: Homo sapiens
# SR = experiment: NCI60 one-dose screen (10 μM), Leukemia; assay type: cell-based; settings: Homo sapiens, read-out: Growth percent rate
# MDA-MB-468 = experiment: NCI60 one-dose screen (10 μM), Breast Cancer; assay type: cell-based; settings: Homo sapiens
# NCI-H226 = experiment: NCI60 one-dose screen (10 μM), Non-small Cell Lung Cancer; assay type: cell-based; settings: Homo sapiens
# HS 578T = experiment: NCI60 one-dose screen (10 μM), Breast Cancer; assay type: cell-based; settings: Homo sapiens, read-out: Growth percent rate
# OVCAR-5 = experiment: NCI60 one-dose screen (10 μM), Ovarian Cancer; assay type: cell-based; settings: Homo sapiens
# SK-OV-3 = experiment: NCI60 one-dose screen (10 μM), Ovarian Cancer; assay type: cell-based; settings: Homo sapiens
# MDA-MB-231/ATCC = experiment: NCI60 one-dose screen (10 μM), Breast Cancer; assay type: cell-based, human; settings: Homo sapiens
# T-47D = experiment: NCI60 one-dose screen (10 μM), Breast Cancer; assay type: cell-based; settings: Homo sapiens, T47D, read-out: Growth percent rate
# NCI/ADR-RES = experiment: NCI60 one-dose screen (10 μM), Ovarian Cancer; assay type: cell-based; settings: Homo sapiens, read-out: Growth percent rate
# TK-10 = experiment: NCI60 one-dose screen (10 μM), Renal Cancer; assay type: cell-based; settings: Homo sapiens
# U251 = experiment: NCI60 one-dose screen (10 μM), CNS Cancer; assay type: cell-based; settings: Homo sapiens
# UO-31 = experiment: NCI60 one-dose screen (10 μM), Renal Cancer; assay type: cell-based; settings: Homo sapiens
# HOP-92 = experiment: NCI60 one-dose screen (10 μM), Non-small Cell Lung Cancer; assay type: cell-based; settings: Homo sapiens
# PC-3 = experiment: NCI60 one-dose screen (10 μM), Prostate Cancer; assay type: cell-based; settings: Homo sapiens
# [1] = 10 μM, HOP-62, Non-small Cell Lung Cancer, read-out: Growth percent rate
# [2] = 10 μM, RPMI-8226, Leukemia, read-out: Growth percent rate
# [3] = 10 μM, BT-549, Breast Cancer, read-out: Growth percent rate
# [4] = 10 μM, A498, Renal Cancer, read-out: Growth percent rate
# [5] = 10 μM, UACC-62, Melanoma, read-out: Growth percent rate
# [6] = 10 μM, MDA-MB-468, Breast Cancer, read-out: Growth percent rate
# [7] = 10 μM, NCI-H226, Non-small Cell Lung Cancer, read-out: Growth percent rate
# [8] = 10 μM, OVCAR-5, Ovarian Cancer, read-out: Growth percent rate
# [9] = 10 μM, SK-OV-3, Ovarian Cancer, read-out: Growth percent rate
# [10] = 10 μM, MDA-MB-231/ATCC, Breast Cancer, read-out: Growth percent rate
# [11] = 10 μM, TK-10, Renal Cancer, read-out: Growth percent rate
# [12] = U-251, 10 μM, U251, CNS Cancer, read-out: Growth percent rate
# [13] = 10 μM, UO-31, Renal Cancer, read-out: Growth percent rate
# [14] = 10 μM, HOP-92, Non-small Cell Lung Cancer, read-out: Growth percent rate
# [15] = 10 μM, PC-3, Prostate Cancer, read-out: Growth percent rate
# [16] = HOP-62, read-out: Growth percent rate
# [17] = RPMI-8226, read-out: Growth percent rate
# [18] = BT-549, read-out: Growth percent rate
# [19] = A498, read-out: Growth percent rate
# [20] = UACC-62, read-out: Growth percent rate
# [21] = MDA-MB-468, read-out: Growth percent rate
# [22] = NCI-H226, read-out: Growth percent rate
# [23] = OVCAR-5, read-out: Growth percent rate
# [24] = SK-OV-3, read-out: Growth percent rate
# [25] = MDA-MB-231, read-out: Growth percent rate
# [26] = TK-10, read-out: Growth percent rate
# [27] = U-251, read-out: Growth percent rate
# [28] = UO-31, read-out: Growth percent rate
# [29] = HOP-92, read-out: Growth percent rate
# [30] = PC-3, read-out: Growth percent rate
Compound,activity at 10 µM (HOP-62; [1]),activity at 10 µM (RPMI-8226; [2]),activity at 10 µM (BT-549; [3]),activity at 10 µM (A498; [4]),activity at 10 µM (UACC-62; [5]),activity at 10 µM (MDA-MB-468; [6]),activity at 10 µM (NCI-H226; [7]),"activity at 10 µM (HS 578T; 10 μM, HS 578T, Breast Cancer)",activity at 10 µM (OVCAR-5; [8]),activity at 10 µM (SK-OV-3; [9]),activity at 10 µM (MDA-MB-231/ATCC; [10]),"activity at 10 µM (T-47D; 10 μM, T-47D, Breast Cancer)","activity at 10 µM (NCI/ADR-RES; 10 μM, Ovarian Cancer)",activity at 10 µM (TK-10; [11]),activity at 10 µM (U251; [12]),activity at 10 µM (UO-31; [13]),activity at 10 µM (HOP-92; [14]),activity at 10 µM (PC-3; [15]),activity at 10 µM (HOP-62; [16]),activity at 10 µM (RPMI-8226; [17]),also measured
CCC12C=CCN3CCC4(c5cc(NC(=O)CN6CCN(C(=O)c7ccco7)CC6)c(OC)cc5N(C)C4C(O)(C(=O)OC)C1OC(C)=O)C32 (centres unmarked) [Compound 21],100%,103%,117%,104%,103%,120%,111%,121%,121%,113%,98.8%,111%,112%,109%,118%,89.3%,,,,,"activity at 10 µM (SR; 10 μM, Leukemia): 97.2%"
CC[C@]12C=CCN3CC[C@@]4(c5ccc(OC)cc5N(C)[C@H]4[C@@](O)(C(=O)OC)[C@@H]1OC(=O)CCC(=O)N1CCN(C)CC1)[C@@H]32 [Compound 27],119%,94.5%,88.6%,105%,112%,124%,80.4%,70.8%,,106%,,,107%,91.9%,110%,,105%,101%,,,
CCC12C=CCN3CCC4(c5cc(NC(=O)CN6CCN(Cc7ccc(C(F)(F)F)cc7)CC6)c(OC)cc5N(C)C4C(O)(C(=O)OC)C1OC(C)=O)C32 (centres unmarked) [Compound 18],,,,,,,,,,,,,,,,,,,86.1%,17.4%,activity at 10 µM (BT-549; [18]): 47%; activity at 10 µM (A498; [19]): 78.7%; activity at 10 µM (UACC-62; [20]): 74.4%; activity at 10 µM (SR): 48.2%; activity at 10 µM (MDA-MB-468; [21]): 39.8%; activity at 10 µM (NCI-H226; [22]): 67.7%; activity at 10 µM (HS 578T; Hs-578T): 62.5%; activity at 10 µM (OVCAR-5; [23]): 108%; activity at 10 µM (SK-OV-3; [24]): 87%; activity at 10 µM (MDA-MB-231/ATCC; [25]): 43.7%; activity at 10 µM (T-47D): 51.4%; activity at 10 µM (NCI/ADR-RES): 61.9%; activity at 10 µM (TK-10; [26]): 81.5%; activity at 10 µM (U251; [27]): 74.8%; activity at 10 µM (UO-31; [28]): 50%
CCC12C=CCN3CCC4(c5cc(NC(=O)CN6CCN(C)CC6)c(OC)cc5N(C)C4C(O)(C(=O)OC)C1OC(C)=O)C32 (centres unmarked) [Compound 16],104%,102%,113%,158%,98.9%,,101%,111%,102%,113%,102%,104%,104%,103%,97.4%,89.4%,,93.1%,,,"activity at 10 µM (SR; 10 μM, Leukemia): 93.8%"
"CCC12C=CCN3CCC4(c5ccc(OC)cc5N(C)C4C(O)(C(=O)OC)C1OC(=O)CCC(=O)O)C32 (centres unmarked) [Compound 15, 17-(O-3-carboxypropanoyl)vindoline]",102%,84.2%,80.5%,90.6%,92.4%,98.7%,66.6%,69.3%,,92.3%,,,94.6%,90.8%,105%,,98.8%,87.7%,,,
CCC12C=CCN3CCC4(c5ccc(OC)cc5N(C)C4C(O)(C(=O)OC)C1OC(=O)CCCN1CCN(C)CC1)C32 (centres unmarked) [Compound 3],79.9%,112%,,83.2%,83.2%,70.5%,,78.6%,96.4%,93.3%,80.4%,90.9%,94.7%,99%,89.9%,75.8%,80.9%,92.9%,,,
CC[C@]12C=CCN3CC[C@@]4(c5ccc(OC)cc5N(C)[C@H]4[C@@](O)(C(=O)OC)[C@@H]1OC(=O)CCCN1CCN(C(=O)c4ccco4)CC1)[C@@H]32 [Compound 26],107%,69.2%,96.8%,107%,86.4%,,94.9%,96.1%,112%,108%,102%,82.2%,91.8%,104%,93.4%,80.6%,,80.5%,,,"activity at 10 µM (SR; 10 μM, Leukemia): 75.4%"
"CCC12C=CCN3CCC4(c5ccc(OC)cc5N(C)C4C(O)(C(=O)OC)C1O)C32 (centres unmarked) [Compound 13, 17-desacetylvindoline]",,,,,,,,,,,,,,,,,,,102%,99.4%,activity at 10 µM (BT-549; [18]): 101%; activity at 10 µM (A498; [19]): 104%; activity at 10 µM (HOP-92; [29]): 88.6%; activity at 10 µM (UACC-62; [20]): 90.7%; activity at 10 µM (MDA-MB-468; [21]): 92.2%; activity at 10 µM (NCI-H226; [22]): 88.5%; activity at 10 µM (HS 578T; Hs-578T): 100%; activity at 10 µM (OVCAR-5; [23]): 91.2%; activity at 10 µM (PC-3; [30]): 96.5%; activity at 10 µM (MDA-MB-231/ATCC; [25]): 101%; activity at 10 µM (T-47D): 108%; activity at 10 µM (NCI/ADR-RES): 99.4%; activity at 10 µM (TK-10; [26]): 93.3%; activity at 10 µM (U251; [27]): 99.3%; activity at 10 µM (UO-31; [28]): 87.6%
"CCC12C=CCN3CCC4(c5cc(NC(=O)CCl)c(OC)cc5N(C)C4C(O)(C(=O)OC)C1OC(C)=O)C32 (centres unmarked) [Compound 12, 10-chloroacetamidovindoline]",-57.6%,-24.7%,14.7%,54.6%,22.1%,-40.8%,43.5%,-16.8%,,33.9%,,,79.4%,24.8%,-47.9%,,34.3%,24.5%,,,
"CCC12C=CCN3CC[C@@]4(c5ccc(OC)cc5N(C)[C@H]4[C@@](O)(C(=O)OC)[C@@H]1OC(C)=O)[C@@H]32 (some centres unmarked) [Compound 1, vindoline]",,,,,,,,,,,,,,,,,,,99%,105%,activity at 10 µM (BT-549; [18]): 106%; activity at 10 µM (A498; [19]): 137%; activity at 10 µM (HOP-92; [29]): 109%; activity at 10 µM (MDA-MB-468; [21]): 134%; activity at 10 µM (NCI-H226; [22]): 92.3%; activity at 10 µM (HS 578T; Hs-578T): 98%; activity at 10 µM (OVCAR-5; [23]): 107%; activity at 10 µM (SK-OV-3; [24]): 102%; activity at 10 µM (PC-3; [30]): 98.6%; activity at 10 µM (MDA-MB-231/ATCC; [25]): 113%; activity at 10 µM (NCI/ADR-RES): 107%; activity at 10 µM (TK-10; [26]): 97.5%; activity at 10 µM (U251; [27]): 95.9%; activity at 10 µM (UO-31; [28]): 84.6%
CCC12C=CCN3CCC4(c5cc(NC(=O)CN6CCN(Cc7ccc(F)cc7)CC6)c(OC)cc5N(C)C4C(O)(C(=O)OC)C1OC(C)=O)C32 (centres unmarked) [Compound 19],,,,,,,,,,,,,,,,,,,106%,94.1%,activity at 10 µM (BT-549; [18]): 101%; activity at 10 µM (A498; [19]): 132%; activity at 10 µM (UACC-62; [20]): 96.9%; activity at 10 µM (SR): 75.3%; activity at 10 µM (NCI-H226; [22]): 97.8%; activity at 10 µM (HS 578T; Hs-578T): 110%; activity at 10 µM (OVCAR-5; [23]): 111%; activity at 10 µM (SK-OV-3; [24]): 108%; activity at 10 µM (PC-3; [30]): 73.6%; activity at 10 µM (MDA-MB-231/ATCC; [25]): 102%; activity at 10 µM (T-47D): 93%; activity at 10 µM (NCI/ADR-RES): 97.3%; activity at 10 µM (TK-10; [26]): 107%; activity at 10 µM (U251; [27]): 103%; activity at 10 µM (UO-31; [28]): 89.1%
